Legend:
[1] = molecular target: T1, ERRα ligand binding domain (ERRα-LBD) (Homo sapiens, UniProt P11474); assay: ERRα AlphaScreen Assay; format: biochemical; conditions: disruption of binding of ERRα-LBD protein to biotin-PGC1α-3 co-activator peptide; read-out: mean pIC50 (converted)
T1 construct: made in house; host or cells: E. coli
T1 sequence (P11474 193-421 limits assumed): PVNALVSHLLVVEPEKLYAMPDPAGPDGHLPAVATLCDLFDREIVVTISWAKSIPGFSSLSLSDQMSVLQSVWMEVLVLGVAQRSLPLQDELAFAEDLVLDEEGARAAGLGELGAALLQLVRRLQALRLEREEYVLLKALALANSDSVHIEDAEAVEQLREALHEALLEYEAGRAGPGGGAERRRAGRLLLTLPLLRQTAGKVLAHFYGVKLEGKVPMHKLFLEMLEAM
In short: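 E. coli-expressed 6His-SUMO-ERRα-LBD (0.81 nM) incubated with compound and donor/acceptor beads 1 h, then 2 h with 15 nM biotin-PGC1α-3 peptide (aa 202–220); room temperature, Tris pH 7.5 buffer with TCEP, 1% DMSO, triplicates. Loss of co-activator binding read by AlphaScreen; four-parameter dose-response fit.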

B16F10 melanoma = assay: B16F10 Melanoma Syngeneic Mouse Model; format: in vivo; conditions: 30 mpk p.o., q.d., B16F10 allograft in C57BL/6 mice
Experimental: Example inhibitor 80 was tested for its ability to inhibit tumor growth in a B16F10 melanoma syngeneic mouse model. Cell line and tumor model: B16F10 melanoma cell line derived allograft model in C57BL/6 mice.
Mouse B16F10 melanoma cells were sourced from American Type Culture Collection (ATCC), USA. Cells were grown in DMEM (Invitrogen, Catalogue No. 31600-034) supplemented with 10% FBS (Invitrogen, Catalogue No. 10438-026), and 1% penicillin streptomycin (Thermo Fisher Scientific, Catalogue No. 15140-122). To establish allografts, the cells were harvested by trypsinization when they reach around 70 to 80% confluence and 0.1 million B16F10 cells were suspended in 50 μl of serum free medium and mixed at 1:1 ratio with matrigel before implanting subcutaneously into the dorsal right flank of mice using a 1 mL BD syringe attached to a 24-gauge needle.
B16F10 tumor grafts were measured after 5 days of cell inoculation once they became palpable. […]
Tumor dimensions—length (I) and breadth (b)—were measured by caliper on the day of animal randomization based on tumor volume (Day 1) and thrice weekly thereafter until study termination. Tumor volumes were calculated using the formula b^2*I*0.52 where I=length, b=breadth (Dusan Djokovic et al., BMC Cancer, 2010, 10:641). Tumor growth inhibition was calculated after normalizing the tumor volume on a given day to that on Day 1. […]

full length ERRα = molecular target: T2, full length ERRα (Homo sapiens, UniProt P11474); assay: Full Length ERRα Reporter Gene Assay; format: cell-based; conditions: SK-BR-3 cells, ERRα-RE luciferase reporter, overnight incubation; read-out: mean pIC50 (converted)
T2 construct: an over-expression construct coding full length ERRα; expressed in transfected cells; host or cells: SK-BR-3 cells, transient co-transfection of pLP2124 (pcDNA3.1/Hygro(+) background) and reporter pLP2175
T2 sequence (P11474 1-423): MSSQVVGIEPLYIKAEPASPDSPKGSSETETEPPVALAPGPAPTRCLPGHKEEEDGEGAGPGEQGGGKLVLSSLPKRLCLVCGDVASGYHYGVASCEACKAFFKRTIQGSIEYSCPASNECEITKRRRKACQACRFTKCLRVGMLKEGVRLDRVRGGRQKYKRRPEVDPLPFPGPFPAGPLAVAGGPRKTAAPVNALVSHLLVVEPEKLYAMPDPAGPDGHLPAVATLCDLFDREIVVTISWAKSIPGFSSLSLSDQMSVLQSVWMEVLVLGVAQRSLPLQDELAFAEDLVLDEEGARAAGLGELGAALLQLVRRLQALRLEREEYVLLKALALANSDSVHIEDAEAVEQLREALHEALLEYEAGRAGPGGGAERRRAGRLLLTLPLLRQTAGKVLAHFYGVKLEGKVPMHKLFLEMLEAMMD
Excerpt: A method was established to quantitatively screen the potency of compounds with inverse agonistic activity on the nuclear receptor ERRα of the human species. The assay allows intra-cellular screening of ERRα inverse agonists in SK-BR-3 cells using an over-expression construct coding full length ERRα and a reporter construct containing an ERRα Response Element (RE) and a luciferase gene for read out. The activity is expressed in logIC50 values and can be used to determine SAR of compound families or to de-select compounds.
In this assay, reporter cells are obtained by transient co-transfection of two constructs in SK-BR-3 cells using standard transfection techniques. The first construct contains a response element of the nuclear receptor ERRα (Plasmid pLP2175, Reporter construct ERRα-RE/luc2P, cloned variant of ERRα_v2_synthRE, Switchgear Genomics, Catalog Number S900089). This sequence drives the transcription of the luciferase reporter gene in response to binding of an ERRα protein encoded by the second construct (Plasmid pLP2124: full length ERRα expression construct using pcDNA3.1/Hygro(+) as background, Invitrogen Catalog Number V87020).
The day after transfection, cells were plated into 96 well plates, the test compound was added and the plates were incubated overnight. Subsequently, the firefly luciferase activity was quantified using luciferase detection reagent and luminescence readout.
Transfection is performed on pre-seeded SK-BR-3 cells in a T175 flask. One transfected T175 flask is sufficient for seeding 3 to 4 MW96 plates the next day, depending on the confluency of the transfected cells.
Two different media are used in this protocol for cell treatment: 1) Culture medium, i.e. McCoy's 5a with phenol red (BioWhittaker Supplier Number 12-688F), 10% FBS and 1× Penstrep.; and, 2) Assay medium, i.e. McCoy's 5a Medium phenol red free (HyClone Product Code SH30270.01) with 2% Charcoal Stripped FBS and 1× Penstrep. Compound dilutions are prepared in assay medium.
Cells are seeded at least 2 days in advance to allow the cells to adhere well to flask before transfection. Cells should be 50-80% confluent at the day of transfection.
SKBR3 cells were transfected with the transcriptional reporter construct pLP2175 and the ERRα expression construct pLP2124 (as described above).
68 μL of Lipofectamine LTX transfection reagent (Invitrogen Catalog Number 15338-100) was added dropwise to 8.9 ml Opti-MEM I Reduced Serum Medium (Gibco Catalog Number 51985-026) and incubated at room temperature for 5 to 20 minutes. 8.9 ml of this reagent mixture was added to 22 μg pLP2175+22 μg pLP2124 (ratio 1:1 and total volume 10 ml), and incubated at room temperature for 25 minutes.
10 minutes before adding the transfection mix to SKBR3 cells in a T175 flask, the culture medium was refreshed with 20 mL culture medium. Subsequently, the 10 mL DNA-Opti-MEM-Lipofectamine mixture was gently added to the cells, followed by overnight (16-24 hours) incubation at 37° C. and 5% CO2.
To harvest SKBR3 cells from a T175 flask, first the medium was removed. Subsequently, cells were washed with Phosphate Buffered Saline (PBS) (Lonza), after which the PBS was removed. To dissociate the cells, 2 ml of TrypLE Express (I nvitrogen) was added to the flask, followed by incubation at 37° C. for 5 minutes. The flask was tapped until cells were detached from the bottom. Cells were collected in 8 mL of culture medium (McCoy's 5a, 10% FBS, penstrep), to achieve a single cell suspension. After cell count, cells were spun down for 5 minutes at 300 g. Next cell pellets were re-suspended to 25000 cells/80 μl assay medium (McCoy's 5a phenol red free, 2% charcoal stripped FBS, penstrep).
For compound screening, the cells were harvested (as described above). 80 μL of cell suspension (25,000 cells) was plated per well into a white, flat bottom, tissue culture treated, 96 well screening plates (Greiner). […]

Compound | IC50 [1] | Tumor Volume (mm^3) Day 13 (B16F10 melanoma) | Tumor Growth Inhibition (%) (B16F10 melanoma; Day 13) | IC50 (full length ERRα)
COc1cc(C2CC(=O)Nc3n[nH]cc32)ccc1Oc1cc(C(F)(F)F)cc(C(F)(F)F)c1 (single isomer, unassigned; (-)) [Example 80, (−)-4-{4-[3,5-bis(trifluoromethyl)phenoxy]-3-methoxyphenyl}-2H,4H,5H,6H,7H-pyrazolo[3,4-b]pyridin-6-one] | ≤ 10 nM | 684 ± 82 mm^3 | 64% | –
COc1ccc(Oc2ccc(-c3cc(=O)[nH]c4n[nH]cc34)cc2OC)c(C(C)(C)C)c1 [Example 68, 4-[4-(2-tert-butyl-4-methoxyphenoxy)-3-methoxyphenyl]-2H,6H,7H-pyrazolo[3,4-b]pyridin-6-one] | ≤ 10 nM | – | – | ≤ 316 nM
COc1cc(-c2cc(=O)[nH]c3n[nH]cc23)ccc1Oc1ccc(C)cc1C(C)(C)C [Example 69, 4-[4-(2-tert-butyl-4-methylphenoxy)-3-methoxyphenyl]-2H,6H,7H-pyrazolo[3,4-b]pyridin-6-one] | ≤ 10 nM | – | – | ≤ 316 nM
COc1cc(-c2cc(=O)[nH]c3n[nH]cc23)ccc1Oc1ccc(Br)cc1C(C)(C)C [Example 70, 4-[4-(4-bromo-2-tert-butylphenoxy)-3-methoxyphenyl]-2H,6H,7H-pyrazolo[3,4-b]pyridin-6-one] | ≤ 10 nM | – | – | ≤ 316 nM

Reference: patent US20240150342A1, “ESTROGEN-RELATED RECEPTOR ALPHA MODULATORS” (LEAD PHARMA HOLDING B.V., priority 2019, published 2024)
